{"source": "patent US5476966A", "about": "“Method for depletion of glutathione” (Cornell Research Foundation, Inc., priority 1995, dated 1995)", "key": {"[1]": {"test_system": "resistant cells", "settings": "glutathione depletion by BSO; cited from earlier work"}, "[2]": {"target": "T1, γ-Glutamylcysteine Synthetase (Rattus norvegicus, UniProt P19468)", "T1 construct": "Rat kidney γ-Glutamylcysteine synthetase was purified from Sprague Dawley (Taconic Farms) rats; from tissue; host or cells: rat kidney (Sprague Dawley, Taconic Farms)", "T1 sequence (P19468 1-637)": "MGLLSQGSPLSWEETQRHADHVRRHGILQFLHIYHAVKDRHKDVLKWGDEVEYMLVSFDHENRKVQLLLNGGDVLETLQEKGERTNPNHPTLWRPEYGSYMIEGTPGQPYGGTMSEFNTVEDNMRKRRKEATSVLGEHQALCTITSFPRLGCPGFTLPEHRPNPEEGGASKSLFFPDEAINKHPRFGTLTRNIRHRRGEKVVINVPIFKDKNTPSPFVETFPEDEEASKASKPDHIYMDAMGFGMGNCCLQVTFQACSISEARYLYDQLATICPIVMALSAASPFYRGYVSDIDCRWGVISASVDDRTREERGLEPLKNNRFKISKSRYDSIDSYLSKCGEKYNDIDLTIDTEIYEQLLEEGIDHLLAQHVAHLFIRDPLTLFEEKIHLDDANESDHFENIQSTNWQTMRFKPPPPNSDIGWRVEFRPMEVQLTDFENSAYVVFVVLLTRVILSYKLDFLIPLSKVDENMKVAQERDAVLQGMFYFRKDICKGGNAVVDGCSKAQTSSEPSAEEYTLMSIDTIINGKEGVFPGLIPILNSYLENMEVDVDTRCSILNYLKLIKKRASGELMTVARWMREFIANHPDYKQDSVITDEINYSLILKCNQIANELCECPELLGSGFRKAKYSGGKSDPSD", "T1 sequence (P48508 1-274 partner)": "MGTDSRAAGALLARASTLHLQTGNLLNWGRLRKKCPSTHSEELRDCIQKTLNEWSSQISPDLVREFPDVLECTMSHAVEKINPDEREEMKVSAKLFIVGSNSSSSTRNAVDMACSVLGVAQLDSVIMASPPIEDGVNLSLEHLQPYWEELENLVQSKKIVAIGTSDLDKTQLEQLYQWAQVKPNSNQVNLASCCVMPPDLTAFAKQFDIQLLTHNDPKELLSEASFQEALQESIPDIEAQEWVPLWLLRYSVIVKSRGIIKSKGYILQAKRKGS", "assay": "Inhibition of γ-glutamylcysteine synthetase (preincubation assay)", "assay_type": "biochemical", "settings": "30 min preincubation, 22° C.; read-out: Kiapp; Concentration for 50% Inhibition", "procedure": "Rat kidney γ-Glutamylcysteine synthetase was purified from Sprague Dawley (Taconic Farms) rats (Seelig., Methods in Enzymology, 1985, 113:379-390).\nThe preincubation assay of γ-glutamylcysteine synthetase is given below. γ-Glutamylcysteine synthetase (4.6 units) was added to a mixture (final volume, 50 μl) containing 100 mM Tris/HCl (pH 8.2), 5 mM ATP, 20 mM MgCl2, 0.2 mM EDTA, and the sulfoximine being evaluated. After incubation at 22° C. for 30 minutes, a 45 μl aliquot of the preincubation mixture was added to the assay as follows.\nγ-Glutamylcysteine synthetase was assayed as follows (Griffith et al, J. Biological Chem., 1979, 254:1205-1210). The reaction mixture (final volume, 1.0 ml) contained 100 mM Tris/HCl (pH 8.2), 120 mM KCl, 5 mM phosphoenolpyruvate, 20 mM MgCl2, 10 mM sodium L-glutamate, 10 mM L-α-aminobutyric acid, 0.2 mM EDTA, 0.4 mM NADH, pyruvate kinase (10 IU), and lactate dehydrogenase (10 IU). The reaction (37° C.) was initiated by the addition of γ-glutamylcysteine synthetase and the oxidation of NADH, equivalent to ADP formation, was recorded at 340 nm."}, "[3]": {"test_system": "human ovarian cancer cells", "settings": "cited from earlier work"}, "[4]": {"test_system": "resistant tumors", "settings": "continuous intraperitoneal infusion of BSO; cited from earlier work"}, "[5]": {"test_system": "Trypanosoma brucei", "settings": "six mice treated, cited from earlier work"}, "[6]": {"settings": "mice depleted of glutathione by buthionine sulfoximine; cited from earlier work"}, "[7]": {"test_system": "human lymphoid cell lines", "settings": "cited from earlier work"}, "[8]": {"test_system": "tumor cell lines", "settings": "glucose oxidase, activated macrophages and granulocytes with phorbol myristate acetate; cited from earlier work"}, "[9]": {"assay": "Detection of compound in mouse bile", "assay_type": "in vivo"}, "[10]": {"test_system": "B16 melanomas", "settings": "cited from earlier work"}, "[11]": {"test_system": "mouse L1210 leukemia cells", "settings": "resistant cells treated with BSO; cited from earlier work"}, "[12]": {"test_system": "human lymphoid cell lines", "settings": "cited from earlier work", "remark": "listed apart in the source"}, "[13]": {"test_system": "V79 cells", "settings": "cited from earlier work"}, "[14]": {"test_system": "glutathione", "assay": "Tissue glutathione levels after intraperitoneal administration of sulfoximines", "assay_type": "in vivo, mouse", "settings": "2 mmol/Kg i.p.", "procedure": "Male mice (Swiss Webster) were fasted overnight (about 16 hr). L-3-methylbuthionine-SR-sulfoximine (3 mBSO; L-S-3-methylbutyl homocysteine-SR-sulfoximine; L-S-isopentyl homocysteine-SR-sulfoximine), L-buthionine-SR-sulfoximine(BSO; L-S-butyl homocysteine-SR-sulfoximine), L-2-methylbuthiomine-SR-sulfoximine (2 mBSO, L-S-2methylbutyl homocysteine-SR-sulfoximine), or saline (0.9% NaCl) were administered to mice at 2 mmol/Kg intraperitoneally (50 mM, Ph ^~ 7). At the times indicated, plasma and tissues were obtained and assayed for glutathione (GSH+1/2 GSSG) as described by Anderson, Methods in Enzymology, 1985, 113:548-555."}}, "data": [{"smiles": "CCCCS(=N)(=O)CCC(N)C(=O)O", "note": "[BSO, L-S-butyl homocysteine-SR-sulfoximine]", "values": [{"measurement": "reversal of drug resistance", "setting": "[1]", "result": "reversal of drug resistance"}, {"measurement": "Ki", "setting": "[2]", "result": 600, "unit": "nM"}, {"measurement": "reversal of resistance", "setting": "[3]; glutathione depletion with BSO", "result": "Reversal of resistance can be achieved"}, {"measurement": "sensitivity of resistant cells to the drugs and to radiation", "setting": "[3]; glutathione depletion", "result": "significantly increases the sensitivity of the resistant cells"}, {"measurement": "life span", "setting": "[4]", "result": "increase in the life span"}, {"measurement": "sensitization of tumors to phenylalanine mustard", "setting": "[4]", "result": "sensitization of the tumors to the effects of phenylalanine mustard was achieved"}, {"measurement": "cure of infected mice", "setting": "[5]", "result": "two mice were apparently cured"}, {"measurement": "survival of infected mice", "setting": "[5]; versus untreated infected controls", "result": "four mice survived significantly longer"}, {"measurement": "decrease in LD50 value of acetaminophen", "setting": "[6]", "result": "about 80%"}, {"measurement": "sensitivity to γ-radiation", "setting": "[7]; cells with 4-5% of control glutathione", "result": "much more sensitive"}, {"measurement": "sensitivity to radiation", "setting": "[7]; glutathione about 5% of the control levels", "result": "marked increase in sensitivity to radiation"}, {"measurement": "degree of cytolysis", "setting": "[8]", "result": "enhanced the degree of cytolysis"}, {"measurement": "detection in mouse bile", "setting": "[9]", "result": "no BSO was detected"}, {"measurement": "longevity", "setting": "[10]; BSO plus irradiation", "result": "significant increase in longevity"}, {"measurement": "tumor size", "setting": "[10]; BSO plus irradiation", "result": "significant decrease in tumor size"}, {"measurement": "tumor glutathione content relative to untreated controls", "setting": "[10]; when irradiated, tumors in footpads of mice", "result": "about 20%"}, {"measurement": "sensitivity of resistant cells to phenylalanine mustard", "setting": "[11]", "result": "resensitization of the tumor cells to phenylalanine mustard"}, {"measurement": "disappeared intracellular glutathione found in the medium", "setting": "[12]; CEM line, L-serine plus borate in medium", "result": "About 50%"}, {"measurement": "cell viability on further decrease in glutathione level", "setting": "[12]; below 0.09 mM glutathione", "result": "marked loss of viability"}, {"measurement": "cell viability", "setting": "[12]; cells with 0.09 mM glutathione (4% of controls)", "result": 85, "unit": "%"}, {"measurement": "cellular glutathione as percent of control levels", "setting": "[12]; three human lymphoid cell lines, medium containing BSO, 50 hours", "result": "about 5%"}, {"measurement": "oxygen enhancement ratio", "setting": "[13]", "result": "decrease of the oxygen enhancement ratio"}, {"measurement": "sensitization to radiation", "setting": "[13]; hypoxic conditions", "result": "sensitization to radiation under hypoxic conditions"}, {"measurement": "% Decrease in glutathione", "setting": "[14]; brain, 2 hr", "result": 10, "unit": "%"}, {"measurement": "Glutathione level", "setting": "[14]; brain, 2 hr", "result": 2.08, "unit": "µmol/g"}, {"measurement": "% Decrease in glutathione", "setting": "[14]; brain, 12 hr", "result": 17, "unit": "%"}, {"measurement": "Glutathione level", "setting": "[14]; brain, 12 hr", "result": 1.93, "unit": "µmol/g"}, {"measurement": "% Decrease in glutathione", "setting": "[14]; heart, 2 hr", "result": 14, "unit": "%"}, {"measurement": "Glutathione level", "setting": "[14]; heart, 2 hr", "result": 1.16, "unit": "µmol/g"}, {"measurement": "% Decrease in glutathione", "setting": "[14]; heart, 12 hr", "result": 57, "unit": "%"}, {"measurement": "Glutathione level", "setting": "[14]; heart, 12 hr", "result": 0.56, "unit": "µmol/g"}, {"measurement": "% Decrease in glutathione", "setting": "[14]; kidney, 2 hr", "result": 82, "unit": "%"}, {"measurement": "Glutathione level", "setting": "[14]; kidney, 2 hr", "result": 0.76, "unit": "µmol/g"}, {"measurement": "% Decrease in glutathione", "setting": "[14]; kidney, 12 hr", "result": 79, "unit": "%"}, {"measurement": "Glutathione level", "setting": "[14]; kidney, 12 hr", "result": 0.75, "unit": "µmol/g"}, {"measurement": "% Decrease in glutathione", "setting": "[14]; liver, 2 hr", "result": 72, "unit": "%"}, {"measurement": "Glutathione level", "setting": "[14]; liver, 2 hr", "result": 1.50, "unit": "µmol/g"}, {"measurement": "% Decrease in glutathione", "setting": "[14]; liver, 12 hr", "result": 32, "unit": "%"}, {"measurement": "Glutathione level", "setting": "[14]; liver, 12 hr", "result": 3.37, "unit": "µmol/g"}, {"measurement": "% Decrease in glutathione", "setting": "[14]; plasma, 2 hr", "result": 66, "unit": "%"}, {"measurement": "Glutathione level", "setting": "[14]; plasma, 2 hr", "result": 10.1, "unit": "µM"}, {"measurement": "% Decrease in glutathione", "setting": "[14]; plasma, 12 hr", "result": 43, "unit": "%"}, {"measurement": "Glutathione level", "setting": "[14]; plasma, 12 hr", "result": 16.3, "unit": "µM"}]}]}
